Assay results as given in ChEMBL document CHEMBL1201862, “PubChem BioAssay data set” (2004).
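Test compounds were applied to cells in 96-well plates for 48 hours at 5 doses. The concentration for 50% growth inhibition is given as GI50.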 The source made the active and inactive calls. Rule as the data show it: active = GI50 up to about 1.1 µM and inactive = higher.

Tests used:
Assay in all cases: NCI anticancer screen, dose series, 48 h
[1] = test system: HOP-92
[2] = test system: CCRF-CEM
[3] = test system: HCT-116
[4] = test system: OVCAR-3
[5] = test system: SF-539
[6] = test system: PC-3
[7] = test system: SK-MEL-5
[8] = test system: K562
[9] = test system: RPMI-8226
[10] = test system: MDA-MB-435
[11] = test system: A549
[12] = test system: MDA-N
[13] = test system: SK-MEL-28
[14] = test system: ACHN
[15] = test system: T47D
[16] = test system: UO-31
[17] = test system: TK-10
[18] = test system: 786-0
[19] = test system: Malme-3M
[20] = test system: SR

SMILES	GI50 [1]	GI50 [2]	GI50 [3]	GI50 [4]	GI50 [5]	GI50 [6]	GI50 [7]	GI50 [8]	GI50 [9]	GI50 [10]	GI50 [11]	GI50 [12]	GI50 [13]	GI50 [14]	GI50 [15]	GI50 [16]	GI50 [17]	GI50 [18]	GI50 [19]	GI50 [20]
O=C(CN1c2ccccc2Sc2ccccc21)n1cnc2ccccc21	30.6 µM (inactive)	73.1 µM (inactive)	> 100 µM (inactive)	62.8 µM (inactive)	> 100 µM (inactive)	70.6 µM (inactive)	56.9 µM (inactive)	99.5 µM (inactive)	90.4 µM (inactive)	> 100 µM (inactive)	> 100 µM (inactive)	> 100 µM (inactive)	> 100 µM (inactive)	> 100 µM (inactive)	49.8 µM (inactive)	75.9 µM (inactive)	> 100 µM (inactive)	52.6 µM (inactive)	74.8 µM (inactive)	
C/C(=N\c1cc(Cl)cc(Cl)c1)c1ccncc1	63.8 µM (inactive)	> 100 µM (inactive)	> 100 µM (inactive)	> 100 µM (inactive)	> 100 µM (inactive)	> 100 µM (inactive)	> 100 µM (inactive)	> 100 µM (inactive)	31 µM (inactive)	> 100 µM (inactive)	> 100 µM (inactive)	> 100 µM (inactive)	> 100 µM (inactive)	> 100 µM (inactive)	> 100 µM (inactive)	89.7 µM (inactive)	> 100 µM (inactive)	> 100 µM (inactive)	> 100 µM (inactive)	
O=C(O)CCN(CCC(=O)O)c1ccc(/C=C2\SC(=S)NC2=O)cc1	> 100 µM (inactive)	> 100 µM (inactive)	> 100 µM (inactive)	> 100 µM (inactive)	> 100 µM (inactive)	> 100 µM (inactive)	> 100 µM (inactive)	> 100 µM (inactive)	> 100 µM (inactive)	> 100 µM (inactive)	> 100 µM (inactive)		> 100 µM (inactive)	> 100 µM (inactive)	> 100 µM (inactive)	> 100 µM (inactive)	> 100 µM (inactive)	> 100 µM (inactive)	1.48 µM (inactive)	> 100 µM (inactive)
Cc1[nH]n(-c2nc(-c3ccccc3)cc(=O)[nH]2)c(=O)c1CCO	> 100 µM (inactive)	> 100 µM (inactive)	> 100 µM (inactive)	> 100 µM (inactive)	> 100 µM (inactive)	> 100 µM (inactive)	> 100 µM (inactive)	> 100 µM (inactive)	> 100 µM (inactive)	> 100 µM (inactive)	> 100 µM (inactive)	> 100 µM (inactive)	> 100 µM (inactive)	> 100 µM (inactive)	> 100 µM (inactive)	> 100 µM (inactive)	> 100 µM (inactive)	> 100 µM (inactive)	> 100 µM (inactive)	
CC(C)(C)OC(=O)N(CCCCNCc1ccc2ccccc2c1)CCCNCc1ccc2ccccc2c1	1.64 µM (inactive)	1.22 µM (inactive)	1.15 µM (inactive)	1.93 µM (inactive)	1.44 µM (inactive)	1.94 µM (inactive)	1.74 µM (inactive)	0.273 µM (active)	1.08 µM (active)	1.84 µM (inactive)	1.81 µM (inactive)		1.8 µM (inactive)	1.92 µM (inactive)	1.74 µM (inactive)	1.73 µM (inactive)	1.66 µM (inactive)	1.41 µM (inactive)		
COC(=O)c1ccc(C)cc1/C=C1\Cc2ccc(C)cc2C1=O	15.5 µM (inactive)	18.2 µM (inactive)	11.1 µM (inactive)	6.52 µM (inactive)	12.4 µM (inactive)	17.9 µM (inactive)	13.9 µM (inactive)	6.58 µM (inactive)	11.8 µM (inactive)	4.28 µM (inactive)	26.9 µM (inactive)		16.6 µM (inactive)	30.8 µM (inactive)	17.1 µM (inactive)	11 µM (inactive)	21.1 µM (inactive)	16.9 µM (inactive)	10.2 µM (inactive)	3.9 µM (inactive)
N=c1c2c3n(c4c(=O)n(-c5ccccc5)c(=S)n(c(=O)n1-c1ccccc1)c24)CCCCC3	> 100 µM (inactive)	> 100 µM (inactive)	> 100 µM (inactive)	> 100 µM (inactive)	> 89.7 µM (inactive)	> 100 µM (inactive)	> 100 µM (inactive)			> 100 µM (inactive)	> 100 µM (inactive)	> 100 µM (inactive)	> 100 µM (inactive)	> 100 µM (inactive)	55.6 µM (inactive)	> 100 µM (inactive)	> 100 µM (inactive)	> 100 µM (inactive)	> 100 µM (inactive)	
Cc1oc2nc(N(C)C)nc(Cl)c2c1C	25.2 µM (inactive)	> 100 µM (inactive)	> 100 µM (inactive)	> 100 µM (inactive)	> 100 µM (inactive)	> 100 µM (inactive)	> 100 µM (inactive)	> 100 µM (inactive)	> 100 µM (inactive)	> 100 µM (inactive)	> 100 µM (inactive)		> 100 µM (inactive)	> 100 µM (inactive)	46.7 µM (inactive)	26.8 µM (inactive)	> 100 µM (inactive)	> 100 µM (inactive)		
O=C1NN=C(c2c[nH]c3ccccc23)CC1NCc1ccccc1 (configuration not stated)	> 100 µM (inactive)	> 100 µM (inactive)	> 100 µM (inactive)	> 100 µM (inactive)	> 100 µM (inactive)	> 100 µM (inactive)	> 100 µM (inactive)	> 100 µM (inactive)	> 100 µM (inactive)	> 100 µM (inactive)	> 100 µM (inactive)	> 100 µM (inactive)	> 100 µM (inactive)	> 100 µM (inactive)	> 100 µM (inactive)	> 100 µM (inactive)	> 100 µM (inactive)	> 100 µM (inactive)	> 100 µM (inactive)	
Cc1ccc(C2(c3ccc(Cl)cc3)c3ccccc3C3=NCCN32)cc1 (configuration not stated)	6.04 µM (inactive)	4.5 µM (inactive)	2.19 µM (inactive)	10.3 µM (inactive)		8.3 µM (inactive)	10.9 µM (inactive)	3.74 µM (inactive)	7.16 µM (inactive)	2.86 µM (inactive)	11.1 µM (inactive)	3.37 µM (inactive)	14.7 µM (inactive)	6.93 µM (inactive)	15.7 µM (inactive)	3.37 µM (inactive)	5.43 µM (inactive)	13.1 µM (inactive)	3.67 µM (inactive)	
CN1CCN(C(=S)N(C(=O)c2cccs2)c2ccccc2)CC1	> 100 µM (inactive)	> 100 µM (inactive)		> 100 µM (inactive)			> 100 µM (inactive)	> 100 µM (inactive)	> 100 µM (inactive)	> 100 µM (inactive)	> 100 µM (inactive)	> 100 µM (inactive)	> 100 µM (inactive)	> 100 µM (inactive)	> 100 µM (inactive)	> 100 µM (inactive)	> 100 µM (inactive)	> 100 µM (inactive)	> 100 µM (inactive)	> 100 µM (inactive)
COC(=O)[C@]1(c2cc3ccccc3[nH]2)CC2CN(CC(=O)N(C)OC)C1C1OC(C)(C)OC21 (some centres not stated)	47.8 µM (inactive)	53.8 µM (inactive)	32.4 µM (inactive)	41.8 µM (inactive)	> 100 µM (inactive)	42.5 µM (inactive)	31 µM (inactive)	35.2 µM (inactive)	23.2 µM (inactive)	44.2 µM (inactive)	33.3 µM (inactive)	49.5 µM (inactive)	> 100 µM (inactive)	42.7 µM (inactive)	28.6 µM (inactive)	37.5 µM (inactive)	56.6 µM (inactive)	45.9 µM (inactive)	> 100 µM (inactive)	
CCOC(=O)[C@@H]1ON2O[C@@H](OC3CCCCC3c3ccccc3)C[C@H]3OC(=O)[C@@H]1C32 (some centres not stated)	> 100 µM (inactive)	0.792 µM (active)	> 100 µM (inactive)	> 100 µM (inactive)	> 100 µM (inactive)		> 100 µM (inactive)	> 100 µM (inactive)	> 100 µM (inactive)	91.2 µM (inactive)	80.7 µM (inactive)	> 100 µM (inactive)		> 100 µM (inactive)	> 100 µM (inactive)	> 100 µM (inactive)	> 100 µM (inactive)	> 100 µM (inactive)		97.9 µM (inactive)
COc1cc2c(cc1OC)C(Cc1ccccc1CCCl)=NCC2	30.3 µM (inactive)	58.7 µM (inactive)	21.1 µM (inactive)	> 100 µM (inactive)	21.2 µM (inactive)	31.1 µM (inactive)	22.5 µM (inactive)	30.3 µM (inactive)	24.2 µM (inactive)	40.1 µM (inactive)	57.9 µM (inactive)		> 100 µM (inactive)	73.3 µM (inactive)	31.8 µM (inactive)	31.3 µM (inactive)	> 100 µM (inactive)	> 100 µM (inactive)		84.1 µM (inactive)
O=P1(Cc2ccccc2)N(Cc2ccccc2)[C@@H]2CCCC[C@H]2N1Cc1ccccc1		4.76 µM (inactive)	6.73 µM (inactive)	7.23 µM (inactive)	17 µM (inactive)	4.18 µM (inactive)	1.79 µM (inactive)	5 µM (inactive)		5.96 µM (inactive)	6.17 µM (inactive)	6.82 µM (inactive)	16.8 µM (inactive)	12.4 µM (inactive)	5.48 µM (inactive)	6.52 µM (inactive)	13.5 µM (inactive)	13 µM (inactive)	17.9 µM (inactive)	2.69 µM (inactive)
